# Measurements as given in patent US20100119530A1, “Regulation of TLR Signaling by Complement” (priority 2007, published 2010).
# T1: C5a receptor (C5aR) (Mus musculus, UniProt P30993)
# T1 construct: from tissue; host or cells: living mice (A4: C57BL/6 DAF-/-; A12: wild-type, with C5aR-/- mice as control)
# T1 sequence (P30993 1-351): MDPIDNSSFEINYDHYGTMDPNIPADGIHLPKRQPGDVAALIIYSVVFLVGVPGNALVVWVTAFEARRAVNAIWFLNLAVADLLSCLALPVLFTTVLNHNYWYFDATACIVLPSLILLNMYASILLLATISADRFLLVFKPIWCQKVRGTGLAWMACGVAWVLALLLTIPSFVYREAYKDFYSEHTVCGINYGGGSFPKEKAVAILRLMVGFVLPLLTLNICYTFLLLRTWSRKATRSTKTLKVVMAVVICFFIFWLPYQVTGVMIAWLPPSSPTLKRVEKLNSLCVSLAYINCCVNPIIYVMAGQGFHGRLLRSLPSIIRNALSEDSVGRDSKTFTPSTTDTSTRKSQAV
# T2: C3a receptor (C3aR) (Mus musculus, UniProt O09047)
# T2 construct: Effect of a C3a receptor antagonist (C3aRa) and a C5a receptor antagonist (C5aRa) on LPS-induced plasma IL-6 levels in DAF^−/− mice; from tissue; host or cells: living C57BL/6 DAF-/- mice (whole animal)
# T2 sequence (O09047 1-477): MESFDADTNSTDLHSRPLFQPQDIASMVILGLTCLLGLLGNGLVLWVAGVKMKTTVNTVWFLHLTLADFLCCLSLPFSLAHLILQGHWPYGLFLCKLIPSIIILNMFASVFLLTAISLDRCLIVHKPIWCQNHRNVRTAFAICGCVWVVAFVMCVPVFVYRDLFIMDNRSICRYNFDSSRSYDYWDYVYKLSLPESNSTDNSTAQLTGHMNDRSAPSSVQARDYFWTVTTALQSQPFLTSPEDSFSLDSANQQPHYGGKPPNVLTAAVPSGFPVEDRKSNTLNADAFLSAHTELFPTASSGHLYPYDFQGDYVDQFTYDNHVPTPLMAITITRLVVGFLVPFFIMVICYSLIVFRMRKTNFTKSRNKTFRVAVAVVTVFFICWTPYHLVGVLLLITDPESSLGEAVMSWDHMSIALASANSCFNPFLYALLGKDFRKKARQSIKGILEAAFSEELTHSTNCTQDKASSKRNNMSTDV
# T3: C5aR (Mus musculus, UniProt P30993)
# T3 construct: from tissue; host or cells: living mice (A4: C57BL/6 DAF-/-; A12: wild-type, with C5aR-/- mice as control)
# T3 sequence (P30993 1-351): T1 sequence (P30993 1-351)
# B1: IL-6: cytokine added to naive CD4 T cell cultures to drive Th-17 differentiation (protein, UniProt P08505 25-211, looked up)
# Interleukin-6: FPTSQVRRGDFTEDTTPNRPVYTTSQVGGLITHVLWEIVEMRKELCNGNSDCMNNDDALAENNLKLPEIQRNDGCYQTGYNQEICLLKISSGLLEYHSYLEYMKNNLKDNKKDKARVLQRDTETLIHIFNQEVKDLHKIVLPTPISNALLTDKLESQKEWLRTKTIQFILKSLEEFLKVTLRSTRQT
# B2: C5a: recombinant human C5a from Sigma-Aldrich; complement activation product, anaphylatoxin (protein, UniProt P01031 678-751, looked up)
# C5a anaphylatoxin: TLQKKIEEIAAKYKHSVVKKCCYDGACVNNDETCEQRAARISLGPRCIKAFTECCVVASQLRANISHKDMQLGR
# modifications: C5a anaphylatoxin
# How the values were obtained:
# [1] = system: C3 activation fragments (C3b/iC3b/C3c); test: Complement activation assay (sandwich ELISA of plasma C3 activation fragments); assay type: in vivo; conditions: plasma samples of CpG-treated mice
# Method: Levels of C3 activation fragments (C3b/iC3b/C3c) in plasma were measured by a sandwich ELISA. For quantification purposes, 1/500 serial dilutions of CVF-activated WT mouse plasma (prepared by adding 2.5 μg (1.2 units) of CVF to 50 μl plasma and incubating for 1 h at 37° C.) were used as a reference, and complement activation in all testing samples was normalized to this reference sample.
# C5a receptor (C5aR) = target: T1, C5a receptor (C5aR); test: LPS-induced plasma IL-6 in DAF−/− mice treated with C5a receptor antagonist; assay type: in vivo; conditions: 50 μg/mouse i.p. 30 minutes before LPS
# Method: (§1) Mice were injected with the following TLR ligands: LPS (20 mg/kg in PBS, i.p.), zymosan (1 g/kg in 0.9% saline, i.p.), CpG (20 mg/kg in PBS, i.p.). In some experiments, mice were also treated with CVF (15 U/mouse in saline, i.p.), SB290157 (30 mg/kg in 20% polyethylene glycol 400 in saline, i.p.), AcPhe (50 μg/mouse in PBS, i.p.). EDTA (20 mM) anti-coagulated blood samples were collected from the tail vein or vena cava. Plasma was prepared by centrifugation at 1000×g for 15 min at 4° C. and stored as small aliquots at −80° C.
# naive CD4 T cells = test: Th-17 differentiation of purified naive CD4 T cells (anti-CD3/CD28) with cytokines or mouse sera, FACS; assay type: cell-based, mice; conditions: for Th-17 differentiation, cytokine alone: cells treated with the cytokine alone; for Th-17 differentiation driven by serum of mice treated with the substance alone: naive CD4 T cells from wild-type mice, plate-bound anti-CD3 and CD28; for Effect of co-treatment on Th-17 differentiation driven by serum of LPS-treated mice: serum of mice co-treated with LPS and the substance
# Text: To test whether the CVF-augmented inflammatory cytokine production promotes Th-17 differentiation, purified naive CD4 T cells from wild-type mice were stimulated in vitro with plate-bound anti-CD3 and CD28 in the presence of specific cytokines or sera of control (naive mouse) or LPS-, CVF-treated mice. […] The augmenting effect of CVF on LPS-dependent Th-17 differentiation required C3 and C5aR but not C3aR.
# The ability of C5a-induced augmentation of serum inflammatory cytokine production to promote Th-17 differentiation was assessed. Purified naive CD4 T cells from wild-type mice were stimulated in vitro with plate-bound anti-CD3 and CD28 in the presence of specific cytokines or sera of control (naive mouse) or LPS-, C5a-treated mice. […] Treatment of the cells with IL-6 alone or TGF-β alone had no effect on Th-17 differentiation. […] Thus the augmenting effect of C5a on LPS-dependent Th-17 differentiation required C5aR. These findings indicate that complement activation products, particularly C5a, synergize with the TLR activation pathway to augment inflammatory cytokine production. The complement system, through interaction with TLR, augments Th-17 differentiation and therefore plays a role in autoimmune tissue injury. FIGS. 8-11 provide evidence for this conclusion. Thus, inhibiting complement activation is a therapeutic approach for treating Th-17 T cell mediated autoimmune diseases such as multiple sclerosis, Lupus, inflammatory bowel disease, GvHD and transplant rejection.
# [2] = Measurement of plasma LPS levels (Pyrochrome Kit) after LPS injection; assay type: in vivo, mice; conditions: 3 hours after LPS injection (20 mg/kg i.p.), n=12
# Method: as §1
# Plasma LPS levels were determined using the Pyrochrome Kit from Associates of CAPE COD Incorporated (East Falmouth, Mass.). Plasma samples were treated at 70° C. for 10 minutes before assays to heat-inactivate serine proteases. Levels were expressed as units/ml of endotoxin.
# C3a receptor (C3aR) = target: T2, C3a receptor (C3aR); test: LPS-induced plasma IL-6 in DAF−/− mice treated with C3a receptor antagonist; assay type: in vivo; conditions: 30 mg/kg i.p. 30 minutes before LPS
# Method: as §1
# TLR4 signaling = test: Plasma cytokine ELISA in mice after LPS, CVF or LPS/CVF treatment; assay type: in vivo; conditions: 3 hours; for Reduction of LPS-induced IL-12p40 by CVF treatment: LPS/CVF vs LPS
# Method: as §1
# [3] = system: LPS-induced cytokine production; test: Serum cytokine concentrations in mice treated with TLR and/or complement activators; assay type: in vivo; conditions: mice co-treated with LPS and CVF
# Method: A set of experiment was conducted to measure serum concentrations of cytokines in mice untreated (NT) or treated with TLR and/or complement activators. […] On the other hand, CVF reduced LPS-induced IL-12 production (FIG. 8). Thus, the effect of CVF on LPS-induced cytokine production is dependent on complement C3 and C5aR but not C3aR signaling.
# C5aR [4] = target: T3, C5aR; test: Synergistic effect of C5a with LPS on serum IL-6 in mice; assay type: in vivo
# Method: (§2) Next, the Synergistic effect of C5a with LPS in augmenting IL-6 production was tested. Instead of using the complement activator CVF, the complement activation product C5a was directly tested for its activity to synergize with LPS in IL-6 production. […] CVF treatment by itself has no effect on IL-6 production. Thus, the synergistic activity of C5a required C5aR as such an effect was not observed in C5aR^−/− mice (FIG. 10).
# TLR9 = test: Plasma cytokine ELISA in mice after CpG, CVF or CpG/CVF treatment; assay type: in vivo; conditions: wild-type mice, CVF co-treatment with CpG
# Method: as §1
# TLR2/6 signaling = test: Plasma cytokine ELISA in mice after zymosan or zymosan/CVF treatment; assay type: in vivo; conditions: wild-type mice co-treated with zymosan and CVF, 3 hours
# Method: as §1
# C5aR [5] = test: Synergistic effect of C5a with LPS on serum IL-6 in mice; assay type: in vivo; conditions: C5aR−/− mice
# Method: as §2
# [6] = system: NF-kB luciferase reporter gene in RAW264.7 cells; test: NF-kB luciferase reporter gene assay and TNF-α ELISA in transfected RAW 264.7 cells; assay type: cell-based, murine; conditions: transfected RAW264.7 cells
# Text: RAW 264.7 cells were co-transfected with NF-kB Luc (Clontech, Palo Alto, Calif.), human C5aR in pcDNA3 (UMA cDNA resource center, Rolla, Mo.) and the Rellina control vector (Promega, Madison, Wis.) using the Amaxa Nucleofector apparatus (Amaxa Biosystems, Germany). The RAW 264.7 cells expressed detectible levels of endogenous C5aR as assessed by FACS and RT-PCR. After transfection, they also became weakly positive for human C5aR as assessed by FACS. […] Cell culture supernatants were collected for IL-6 and TNF-α assays by ELISA. All assays were performed in triplicates.
# [7] = wild-type mice, CVF co-treatment with LPS
# [8] = wild-type mice, CVF treatment alone
molecule,measurement,setting,value
CpG 1826 (5′-TCCATGACGTFCCTGACGTT-3′),Complement activation in plasma,[1],detectable complement activation
AcPhe,Effect on the increase in LPS-induced IL-6 production,C5a receptor (C5aR),totally blocked
TGF-β,"Th-17 differentiation, cytokine alone",naive CD4 T cells,no effect
lipopolysaccharide [LPS],Th-17 differentiation driven by serum of mice treated with the substance alone,naive CD4 T cells,active in driving Th-17 differentiation
same,Plasma LPS concentration,[2]; DAF−/− mice,1200±307 EU/ml
same,Plasma LPS concentration,[2]; wild-type mice,925±413 EU/ml
NC(N)=NCCC[C@H](NC(=O)COCC(c1ccccc1)c1ccccc1)C(=O)O [SB 290157],Effect on the increase in LPS-induced IL-6 production,C3a receptor (C3aR),significantly (p<0.001) attenuated
Cobra venom factor [CVF],Th-17 differentiation driven by serum of mice treated with the substance alone,naive CD4 T cells,unable to drive Th-17 differentiation
same,Effect of co-treatment on Th-17 differentiation driven by serum of LPS-treated mice,naive CD4 T cells,strongly augmented
same,Reduction of LPS-induced IL-12p40 by CVF treatment,TLR4 signaling; IL-10−/− mice,22%
same,Plasma IL-10 level,TLR4 signaling; LPS/CVF-treated wild-type mice compared with LPS- or CVF-treated wild-type mice,strikingly elevated
same,Effect on LPS-induced plasma IL-6,TLR4 signaling; [7],greatly increased
same,Effect on LPS-induced plasma IL-12p40,TLR4 signaling; [7],decreased
same,Effect on IL-6 production,TLR4 signaling; [8],negligible effect
same,Effect on IL-12p40 production,TLR4 signaling; [8],negligible effect
same,Reduction of LPS-induced IL-12p40 by CVF treatment,TLR4 signaling; wild-type mice,87%
same,Effect on LPS-induced IL-12 production,[3],reduced
same,Effect on LPS-induced serum IL-1β,[3],augmented
same,Effect on LPS-induced serum IL-6,[3],augmented
same,Effect on LPS-induced serum TNF-α,[3],augmented
same,Serum IL-6 level,"C5aR [4]; mice co-treated with LPS, compared with LPS alone",greatly elevated
same,Effect on IL-6 production,"C5aR [4]; treatment by itself, without LPS",no effect
same,Effect on CpG-induced IL-1β production,TLR9,no significant impact
same,Effect on CpG-induced TNF-α production,TLR9,no significant impact
same,Effect on CpG-induced IL-6 production,TLR9; 3 hours,no significant impact
same,Effect on CpG-induced IL-12p40 production,TLR9; 3 hours,markedly suppressed
same,Effect on zymosan-induced IL-6 production,TLR2/6 signaling,Markedly increased
same,Effect on zymosan-induced IL-12p40 production,TLR2/6 signaling,decreased
B1,Th-17 differentiation in the presence of TGF-β,naive CD4 T cells; IL-6 in the presence of TGF-β,differentiated into Th-17 cells
same,"Th-17 differentiation, cytokine alone",naive CD4 T cells,no effect
B2,Th-17 differentiation driven by serum of mice treated with the substance alone,naive CD4 T cells,unable to drive Th-17 differentiation
same,Effect of co-treatment on Th-17 differentiation driven by serum of LPS-treated mice,naive CD4 T cells,strongly augmented
same,Synergistic effect with LPS on IL-6 production,C5aR [5],not observed
same,Secretion of endogenous TNF-α,[6]; C5a (50 nM) with LPS (1000 ng/ml) per FIG. 4D legend,synergized with LPS
same,Secretion of endogenous TNF-α,[6]; C5a alone,negligible effect on its own
